Source: US20090228996A1, “Means and Methods for influencing Interactions Between Dc-Sign and Dc-Sign Ligands” (priority 2006, published 2009)

Columns and labels:
DC-SIGN-Fc = target: T1, DC-SIGN-Fc (Homo sapiens, UniProt Q9NNX6); assay: DC-SIGN-Fc binding ELISA
T1 construct: the extracellular portion of DC-SIGN (amino acids 64 to 404)
T1 sequence (Q9NNX6 64-404): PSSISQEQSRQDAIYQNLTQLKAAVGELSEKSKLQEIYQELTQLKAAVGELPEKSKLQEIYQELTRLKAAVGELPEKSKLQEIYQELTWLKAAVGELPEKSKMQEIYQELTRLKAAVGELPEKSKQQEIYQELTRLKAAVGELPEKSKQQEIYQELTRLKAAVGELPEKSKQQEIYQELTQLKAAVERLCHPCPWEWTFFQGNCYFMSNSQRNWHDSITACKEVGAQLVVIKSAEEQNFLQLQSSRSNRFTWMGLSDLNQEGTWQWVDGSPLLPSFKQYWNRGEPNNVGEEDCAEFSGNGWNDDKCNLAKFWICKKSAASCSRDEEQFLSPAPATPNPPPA
Method: DC-SIGN-Fc binding ELISA. The DC-SIGN-Fc chimera contained the extracellular portion of DC-SIGN (amino acids 64 to 404) fused at the C-terminus to a human immunoglobulin (Ig) G1 Fc fragment and has been previously described (Geijtenbeek et al, 2002). Human milk or human milk compounds were diluted in 0.2M NaHCO3, coated on ELISA plates (maxisorb plate; Nunc) and incubated overnight at 4° C. or 2 hours at 37° C. This was followed by blocking with TSM containing 1% BSA for 30 minutes at 37° C. before addition of soluble DC-SIGN-Fc (5 μg/ml) for 2 hours at RT, the binding was determined by incubation of a peroxidase labeled anti-IgG1 antibody for 30 minutes at RT. DC-SIGN-Fc binding specificity was determined by pre-incubation of the DC-SIGN-FC with either 50 μg/ml DC-SIGN specific mouse antibody AZN-D1 (Geijtenbeek et al, 2000 a) or 10 mM EGTA. Single-cycle-replication transmission assay. The assay was performed as previously described (Groot et al, 2005). In short mDCs and iDCs were incubated in a 96-well-plate (35−50×10^3 DC/well) with human milk for 30 minutes at 37° C. before addition of the virus (5 ng p24/well), which was incubated for 2 hours at 37° C. The DCs were washed twice with PBS before addition of 50×10^3 LuSIV cells. After 24 hours, LuSIV cells were harvested and resuspended in 50 μl lysis buffer (25 mM Tris-Cl 7.8, 2 mM DTT, 2 mM CDTA, 10% glycerol, 1% Triton X100). The cells were then incubated for 45 minutes at room temperature while shaking, followed by 10 minutes centrifugation at 3200×g. […]
DC-SIGN-Fc binding ELISA. […] This was followed by blocking with TSM containing 1% BSA for 30 minutes at 37° C. before addition of soluble DC-SIGN-Fc (5 μg/ml) for 2 hours at RT, the binding was determined by incubation of a peroxidase labeled anti-IgG1 antibody for 30 minutes at RT. DC-SIGN-Fc binding specificity was determined by pre-incubation of the DC-SIGN-Fc with either 50 μg/ml DC-SIGN specific mouse antibody AZN-D1 (Geijtenbeek et al, 2000 a) or 10 mM EGTA.

[1] = target: T2, DC-SIGN on Raji-DC-SIGN cells (Homo sapiens, UniProt Q9NNX6); assay: gp120 bead adhesion assay, Raji-DC-SIGN cells; assay type: cell-based; conditions: for binding of gp120 beads to Raji-DC-SIGN: cells pre-incubated 30 min, human milk 1/20, vs control
T2 construct: expressed in transfected cells; host or cells: Raji cells (Raji-DC-SIGN)
T2 sequence (Q9NNX6 1-404): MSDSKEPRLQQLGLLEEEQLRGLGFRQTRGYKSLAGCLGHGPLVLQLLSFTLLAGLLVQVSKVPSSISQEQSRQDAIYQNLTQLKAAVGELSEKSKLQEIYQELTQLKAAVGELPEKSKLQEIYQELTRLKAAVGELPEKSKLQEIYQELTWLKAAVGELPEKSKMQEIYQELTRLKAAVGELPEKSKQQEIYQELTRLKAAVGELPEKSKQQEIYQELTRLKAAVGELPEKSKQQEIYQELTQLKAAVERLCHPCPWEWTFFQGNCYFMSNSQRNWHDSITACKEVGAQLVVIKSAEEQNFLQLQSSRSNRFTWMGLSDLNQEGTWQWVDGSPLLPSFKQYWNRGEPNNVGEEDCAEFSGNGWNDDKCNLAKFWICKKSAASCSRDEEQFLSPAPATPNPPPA
Method: (§1) gp120 bead adhesion assay. Beads were prepared as previously described (Geijtenbeek et al, 2000 a), in short, streptavidin was covalently coupled to Carboxylate-modified TransFluoSpheres (488/645 nm, 1.0 μm; molecular probes). The steptavidin-beads were incubated with biotinylated F(ab′)2 fragment goat-anti-human IgG (6 μg/ml; Jackson Immunoresearch) and subsequently incubated overnight with gp120-Fc chimera. Fifty thousand cells, Raji-DC-SIGN cells, immature DCs or Raji-L-SIGN cells, were pre-incubated with human milk or milk compounds, AZN-D1 (Geijtenbeek et al, 2000 a), AZN-D2 (Halary et al, 2002), EGTA or mannan for 30 minutes at RT. The ligand-coated beads (20 beads/cell) were added to the pre-incubated cells and incubated for 30 minutes at 37° C. after which the cells were washed with TSM containing 0.5% BSA. After washing, the cells were resuspended in 100 μl TSM-BSA buffer and the adhesion was measured by flow cytometry (BD Biosciences).
(§2) gp120 bead adhesion assay. Beads were prepared as previously described (Geijtenbeek et al, 2000 a), in short, streptavidin was covalently coupled to Carboxylate-modified TransFluoSpheres (488/645 nm, 1.0 μm; molecular probes). The steptavidin-beads were incubated with biotinylated F(ab′)2 fragment goat-anti-human IgG (6 μg/ml; Jackson Immunoresearch) and subsequently incubated overnight with the gp120-Fc chimera. Fifty thousand cells, Raji-DC-SIGN cells or iDCs were pre-incubated with human milk, AZN-D1 (Geijtenbeek et al, 2000 a), AZN-D2 (Halary et al, 2002), EGTA or mannan for 30 minutes at RT. The ligand-coated beads (20 beads/cell) were added to the pre-incubated cells and incubated for 30 minutes at 37° C. after which the cells were washed with TSM (20 mM Tris, 150 mM NaCl, 1 mM CaCl2, 2 mM MgCl2) containing 0.5% BSA. After washing, the cells were resuspended in 100 μl TSM-BSA buffer and the adhesion was measured by flow cytometry (BD Biosciences).

DC-SIGN on iDCs = target: T3, DC-SIGN on iDCs (Homo sapiens, UniProt Q9NNX6); assay: gp120 bead adhesion assay, immature DCs; assay type: cell-based; conditions: for binding of gp120 beads to iDC: cells pre-incubated 30 min, human milk 1/20, vs control
T3 construct: endogenous in cells
T3 sequence (Q9NNX6 1-404): T2 sequence (Q9NNX6 1-404)
Method: as §1, §2

[2] = system: DC-SIGN mediated transfer of HIV-1 by Raji-DC-SIGN cells to CD4+ T-lymphocytes; assay: DC-SIGN mediated HIV-1 transfer assay (Raji-DC-SIGN transfer culture assay); assay type: cell-based; conditions: Le^x containing compounds, all at 10 μg/ml
Method: DC-SIGN mediated HIV-1 transfer assay. The Raji and Raji-DC-SIGN cells were plated at a concentration of 2×10^4 cells/well in a 96 well format. Dilutions of human milk or human milk compounds were made in PBS containing 10% FCS and spiked with 3.7log TCID50/ml of the appropriate virus before addition to the Raji-DC-SIGN cells. As controls PBS containing 10% FCS was spiked with the same TCID50/ml of the corresponding virus before addition to Raji or Raji-DC-SIGN cells. After incubation the culture was washed with PBS before addition of CD4^+ enriched T-lymphocytes at a concentration of 1×10^5 cells/well with p24 determined on day 7. DC-SIGN specific antibody binding after exposure to human milk. […] The cells were washed and resuspended in 100 μl TSM containing 0.5% bovine serum albumin, (BSA Fraction V, Fatty Acid-Free) (Calbiochem) and the adhesion was measured by flow cytometry (BD Biosciences).
DC-SIGN mediated HIV-1 transfer assay. […] After a two hour incubation the culture was washed with PBS before addition of CD4^+ enriched T-lymphocytes at a concentration of 1×10^5 cells/well with p24 values determined on day 7.

DC-SIGN [3] = target: T4, DC-SIGN (Homo sapiens, UniProt Q9NNX6); assay: gp120 bead adhesion assay, cells not given; assay type: cell-based; conditions: Le^x containing compounds; data not shown
T4 sequence (Q9NNX6 1-404): T2 sequence (Q9NNX6 1-404)
Method: as §1

DC-SIGN [4] = target: T4, DC-SIGN; conditions: literature; cited from earlier work
[5] = Example 2, protein fraction from milk S3 (C18 column) and DC-SIGN controls
[6] = major milk proteins at 1/20 dilution of physiological concentration in human milk

Molecule	binding of gp120 beads to Raji-DC-SIGN [1]	gp120 binding to iDCs (DC-SIGN on iDCs; [5])	binding of gp120 beads to iDC (DC-SIGN on iDCs)	DC-SIGN mediated HIV-1 transfer [2]	interaction between DC-SIGN and gp120 (DC-SIGN [3])	further results
O=C(O)CN(CCOCCOCCN(CC(=O)O)CC(=O)O)CC(=O)O [EGTA, reference compound]	block binding of gp120 beads to the DC-SIGN expressing cells to the same extent as human milk	demonstrated inhibition	block binding of gp120 beads to the DC-SIGN expressing cells to the same extent as human milk	–	–	DC-SIGN-Fc binding to human milk after pre-incubation of DC-SIGN-Fc (DC-SIGN-Fc; 50 μg/ml AZN-D1 or 10 mM EGTA, p<0.01): completely abrogated binding
Le^x-BSA: Lewis X-BSA, 14 atom spacer (Calbiochem)	–	–	–	able to inhibit DC-SIGN mediated HIV-1 transfer	none of the tested compounds were able to block the interaction	binding to DC-SIGN-Fc (DC-SIGN-Fc; Le^x-BSA or BSA control coated): demonstrates binding to DC-SIGN-Fc
human lysozyme: major human milk protein (Sigma) [reference compound]	–	–	–	–	–	DC-SIGN-Fc binding to coated milk compound (DC-SIGN-Fc; [6]): showed no binding; gp120 binding to Raji-DC-SIGN [1, 6]: None of the tested human milk compounds could inhibit gp120 binding; gp120 binding to iDCs (DC-SIGN on iDCs; [6]): None of the tested human milk compounds could inhibit gp120 binding
lacto-N-fucopentaose III [LNFP III, reference compound]	–	–	–	not able to prevent HIV-1 transfer	none of the tested compounds were able to block the interaction	previously shown DC-SIGN binding (DC-SIGN [4]): bind DC-SIGN
mannan	block binding of gp120 beads to the DC-SIGN expressing cells to the same extent as human milk	demonstrated inhibition	block binding of gp120 beads to the DC-SIGN expressing cells to the same extent as human milk	–	–	–
